Source: PubChem BioAssay AID1963873 (Molecular Pharmacology Branch, DTP, NCI, 2024)

System: 276233-004-R-J1-PDC KRAS spheroids with HUVEC/MSC, viability
Assay: Anticancer human tumor 276233-004-R-J1-PDC patient-derived colon adenocarcinoma cell line growth inhibition [KRAS2]
Details: for IC50: curve of first compound; for viability, T/C: stronger effect = lower value
Text: Multicellular complex tumor spheroid response to RAS pathway inhibitors in combination with a targeted agents in patient-derived cell lines with oncogenic KRAS variants from multiple cancer types
A high-throughput screen of multi-cell type tumor spheroids was designed to identify active combinations of targeted small molecules and KRAS pathway inhibitors. Complex spheroids include a stromal component modeled by human endothelial cells (HUVEC) and fibroblasts modeled by human mesenchymal stem cells (MSCs). The concentration ranges selected for each drug and investigational agent were based upon clinically achievable concentrations if the clinical Cmax of the agent was known.
Compounds. The drugs and investigational agents: BI-3406 (NSC825286), BAY-293 (NSC824723), batoprotafib (TNO155; NSC825523), sotorasib (AMG 510; NSC818433), MRTX1257 (NSC819558), elimusertib (BAY 1895344; NSC800525), molibresib (GSK525762; NSC774829), temuterkib (LY3214996; NSC803410), venetoclax (NSC766270), alisertib (NSC759677), olaparib (NSC753686), talazoparib (NSC767125), erdafitinib (NSC781556), ipatasertib (NSC767898), cabozantinib (NSC761068), nintedanib (NSC756659), abemaciclib (NSC768073), docetaxel (NSC628503), trametinib (NSC758246), and sapanisertib (NSC764658) were obtained from the National Cancer Institute (NCI) Developmental Therapeutics Program Chemical Repository. The FDA-approved anticancer drug set is available from the Developmental Therapeutics Program. […] The stock solutions were prepared in dimethyl sulfoxide (DMSO, Sigma-Aldrich, St. Louis, MO, cat. D2650) at 800-fold the tested concentration and stored at -70 degrees C prior to their use. All drugs and investigational agents were tested over a range starting from a high concentration at or near the clinical Cmax and decreasing in half-log increments. If the clinical Cmax for an agent had not been determined, the highest concentration tested was 10 microM.
Cell Culture. All cells were maintained in an incubator at 37 degrees C and 5% CO2 with 95% humidity. The PDC lines were cultured according to standard operating procedures established by the NCI PDMR (https://pdmr.cancer.gov/sops/default.htm). Briefly, all PDCs were thawed and cultured in Matrigel-coated flasks prepared with a working solution of 1X Ham's F-12 nutrient mix, without supplementation (Invitrogen, Waltham, MA, cat. 11765054), 100 U/mL penicillin-streptomycin (Invitrogen, cat. 15140122), and 2.5% Matrigel (Corning Inc., Corning, NY, cat. 354248) for the first three passages. All PDCs were cultured in complete DMEM/F-12 media containing advanced DMEM/F-12 (Invitrogen, cat. 12634028), 4.9% defined fetal bovine serum, heat inactivated (HyClone Laboratories Inc., Logan, UT, cat. SH30070.03HI), 389 ng/mL hydrocortisone (Sigma-Aldrich, cat. H4001), 9.7 ng/mL human EGF recombinant protein (Invitrogen, cat. PHG0313), 23.4 microg/mL adenine (Sigma-Aldrich, cat. A2786), 97.3 U/mL penicillin-streptomycin (Invitrogen, cat. 15140122), 1.9 mM L-glutamine (Invitrogen, cat. 25030081), and 9.7 microM Y-27632 dihydrochloride (Tocris Bioscience, Bristol, United Kingdom, cat. 1254). The PDCs were cultured in complete DMEM/F12 media without 9.7 microM Y-27632 dihydrochloride for at least two passages prior to the screen. The established cell line HOP-62 was cultured in RPMI 1640 medium, HEPES (Invitrogen, cat. 22400105) with 10% defined fetal bovine serum (HyClone Laboratories Inc., cat. SH30070.03) and 2 mM L-glutamine (Invitrogen, cat. 25030081). The pooled donor HUVEC were cultured in endothelial cell growth medium 2 (PromoCell, Heidelberg, Germany, cat. C-22011) and the hMSC were cultured in mesenchymal stem cell growth medium 2 (PromoCell, cat. C-28009). For all experiments, HUVEC and hMSC were used at passages </=5, while the malignant cell lines were used at passages </=15. […]

[1] = second compound 0.1 µM, first compound 0.0316 µM
[2] = second compound 0.1 µM, first compound 0.1 µM
[3] = second compound 0.1 µM, first compound 0.316 µM
[4] = second compound 0.1 µM, first compound 1 µM
[5] = second compound 0.1 µM, first compound 3.16 µM
[6] = second compound 0.316 µM, first compound 0.0316 µM
[7] = second compound 0.316 µM, first compound 0.1 µM
[8] = second compound 0.316 µM, first compound 0.316 µM
[9] = second compound 0.316 µM, first compound 1 µM
[10] = second compound 0.316 µM, first compound 3.16 µM
[11] = second compound 1 µM, first compound 0.0316 µM
[12] = second compound 1 µM, first compound 0.1 µM
[13] = second compound 1 µM, first compound 0.316 µM
[14] = second compound 1 µM, first compound 1 µM
[15] = second compound 1 µM, first compound 3.16 µM
[16] = second compound 3.16 µM, first compound 0.0316 µM
[17] = second compound 3.16 µM, first compound 0.1 µM
[18] = second compound 3.16 µM, first compound 0.316 µM
[19] = second compound 3.16 µM, first compound 1 µM
[20] = second compound 3.16 µM, first compound 3.16 µM
[21] = second compound 10 µM, first compound 0.0316 µM
[22] = second compound 10 µM, first compound 0.1 µM
[23] = second compound 10 µM, first compound 0.316 µM
[24] = second compound 10 µM, first compound 1 µM
[25] = second compound 10 µM, first compound 3.16 µM
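Note: cells exposed to agents for seven days before viability read.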
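Throughout, for viability, T/C: 100% = DMSO vehicle control wells and lower values mean fewer viable cells.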

Compound | IC50 (second compound 0.1 µM) | IC50 (second compound 0.316 µM) | IC50 (second compound 1 µM) | IC50 (second compound 3.16 µM) | IC50 (second compound 10 µM) | viability, T/C [1] | viability, T/C [2] | viability, T/C [3] | viability, T/C [4] | viability, T/C [5] | viability, T/C [6] | viability, T/C [7] | viability, T/C [8] | viability, T/C [9] | viability, T/C [10] | viability, T/C [11] | viability, T/C [12] | viability, T/C [13] | viability, T/C [14] | viability, T/C [15] | other results
CC1COCCN1c1cc(-c2ccnn2C)c2ccnc(-c3ccn[nH]3)c2n1 (stereo not given) + CC1OCC2(CCN(c3cnc(Sc4ccnc(N)c4Cl)c(N)n3)CC2)C1N | > 3160 nM | 2180 nM | 2830 nM | 632 nM | 737 nM | 96% | 78.3% | 86.2% | 60.9% | 56.1% | 106% | 84.8% | 74.6% | 61.1% | 45% | 73.2% | 67.9% | 68.5% | 57.4% | 47.5% | viability, T/C (second compound 0.1 µM, first compound 0.01 µM): 107%; viability, T/C (second compound 0.316 µM, first compound 0.01 µM): 76.9%; viability, T/C (second compound 1 µM, first compound 0.01 µM): 87.7%; viability, T/C (second compound 3.16 µM, first compound 0.01 µM): 64.1%; viability, T/C [16]: 86.2%; viability, T/C [17]: 64.8%; viability, T/C [18]: 57%; viability, T/C [19]: 46.8%; viability, T/C [20]: 40.7%; viability, T/C (second compound 10 µM, first compound 0.01 µM): 61.1%; viability, T/C [21]: 66.4%; viability, T/C [22]: 56.6%; viability, T/C [23]: 49.2%; viability, T/C [24]: 52.9%; viability, T/C [25]: 41.1%
Cn1nccc1Nc1nccc(-c2cc3c(s2)C(C)(C)N(CCN2CCOCC2)C3=O)n1 + C=CC(=O)N1CCN(c2nc(=O)n(-c3c(C)ccnc3C(C)C)c3nc(-c4c(O)cccc4F)c(F)cc23)C(C)C1 | > 10000 nM | > 10000 nM | > 10000 nM | > 10000 nM | > 10000 nM | 106% | 100% | 83.1% | 71.6% | 69.9% | 114% | 112% | 101% | 99.3% | 66.2% | 132% | 108% | 83.1% | 93.1% | 67.6% | viability, T/C (second compound 0.1 µM, first compound 10 µM): 60.4%; viability, T/C (second compound 0.316 µM, first compound 10 µM): 66.4%; viability, T/C (second compound 1 µM, first compound 10 µM): 69.2%; viability, T/C [16]: 97.1%; viability, T/C [17]: 122%; viability, T/C [18]: 93.1%; viability, T/C [19]: 98.5%; viability, T/C [20]: 72.2%; viability, T/C (second compound 3.16 µM, first compound 10 µM): 86.5%; viability, T/C [21]: 89.5%; viability, T/C [22]: 85.7%; viability, T/C [23]: 85.2%; viability, T/C [24]: 72.6%; viability, T/C [25]: 82.2%; viability, T/C (second compound 10 µM, first compound 10 µM): 105%
